Values of other authors in PMC4408534 (Journal of nuclear medicine : official publication, Society …, 2014).

Legend:
[1] = system: human SSTR2-transfected cell membranes; conditions: ± SEM, ref [27]
[2] = system: rat SSTR2 expressed in AR42J membranes; conditions: ref [28]

binding affinity, rat SSTR2 [2]: 0.21 to 0.23 nM
SMILES: C[C@@H](O)[C@H](NC(=O)[C@@H]1CSSC[C@H](NC(=O)[C@@H](Cc2ccccc2)NC(=O)CN2CCN(CC(=O)[O-])CCN(CC(=O)[O-])CCN(CC(=O)[O-])CC2)C(=O)N[C@@H](Cc2ccc(O)cc2)C(=O)N[C@H](Cc2c[nH]c3ccccc23)C(=O)N[C@@H](CCCCN)C(=O)N[C@@H]([C@@H](C)O)C(=O)N1)C(=O)O.[177Lu+3] [177-Lu-Dotatate, Lu-177-Tyr3-octreotate]
binding affinity, human SSTR2 [1]: 1.5 ± 0.4 nM
